The values that follow come from patent publication US20230331918A1, “AMMONIUM AND SULFONIUM SULFONATE ZWITTERIONS AND POLYMERS DERIVED THEREFROM” (University of Massachusetts, priority 2022, published 2023).

In brackets after ≈: the same amount, converted by molar mass.

This data set can be described thus: Solubility of monomers and polymers in water, methanol, chloroform. In kind it is physicochemical.

Text: Monomer solubility (e.g., in water, methanol, or chloroform) varied with the selection of R-groups on the ammonium cation.

One may read the solubility as the dissolved amount per volume that the medium holds. For the molecule `C=Cc1ccc(CC(CC[N+](CCC)(CCC)CCC)S(=O)(=O)[O-])cc1` (centres unmarked) [tri-n-propyl derivative, 4-(Tripropylammonio)-1-(4-vinylphenyl)butane-2-sulfonate], the solubility (methanol, organic solvent or mixture, monomer, room temperature, read-out: Monomer solubility in MeOH (clear solution)) is about 500 mg/mL (≈ 1310 mM).

`C=Cc1ccc(CC(CC[N+](CCCC)(CCCC)CCCC)S(=O)(=O)[O-])cc1` (centres unmarked) [tri-n-butyl derivative, 4-(Tributylammonio)-1-(4-vinylphenyl)butane-2-sulfonate]: the “Monomer solubility in MeOH” value (similar concentration (˜500 mg mL-1)) is listed as “required slightly elevated temperatures to attain solubility in MeOH”.
